What was measured:
[1] = molecular target: T1, Nitric oxide synthase 3 (Homo sapiens, UniProt P29474); experiment: Inhibitory activity against Endothelial nitric oxide synthase
T1 sequence (P29474 whole entry): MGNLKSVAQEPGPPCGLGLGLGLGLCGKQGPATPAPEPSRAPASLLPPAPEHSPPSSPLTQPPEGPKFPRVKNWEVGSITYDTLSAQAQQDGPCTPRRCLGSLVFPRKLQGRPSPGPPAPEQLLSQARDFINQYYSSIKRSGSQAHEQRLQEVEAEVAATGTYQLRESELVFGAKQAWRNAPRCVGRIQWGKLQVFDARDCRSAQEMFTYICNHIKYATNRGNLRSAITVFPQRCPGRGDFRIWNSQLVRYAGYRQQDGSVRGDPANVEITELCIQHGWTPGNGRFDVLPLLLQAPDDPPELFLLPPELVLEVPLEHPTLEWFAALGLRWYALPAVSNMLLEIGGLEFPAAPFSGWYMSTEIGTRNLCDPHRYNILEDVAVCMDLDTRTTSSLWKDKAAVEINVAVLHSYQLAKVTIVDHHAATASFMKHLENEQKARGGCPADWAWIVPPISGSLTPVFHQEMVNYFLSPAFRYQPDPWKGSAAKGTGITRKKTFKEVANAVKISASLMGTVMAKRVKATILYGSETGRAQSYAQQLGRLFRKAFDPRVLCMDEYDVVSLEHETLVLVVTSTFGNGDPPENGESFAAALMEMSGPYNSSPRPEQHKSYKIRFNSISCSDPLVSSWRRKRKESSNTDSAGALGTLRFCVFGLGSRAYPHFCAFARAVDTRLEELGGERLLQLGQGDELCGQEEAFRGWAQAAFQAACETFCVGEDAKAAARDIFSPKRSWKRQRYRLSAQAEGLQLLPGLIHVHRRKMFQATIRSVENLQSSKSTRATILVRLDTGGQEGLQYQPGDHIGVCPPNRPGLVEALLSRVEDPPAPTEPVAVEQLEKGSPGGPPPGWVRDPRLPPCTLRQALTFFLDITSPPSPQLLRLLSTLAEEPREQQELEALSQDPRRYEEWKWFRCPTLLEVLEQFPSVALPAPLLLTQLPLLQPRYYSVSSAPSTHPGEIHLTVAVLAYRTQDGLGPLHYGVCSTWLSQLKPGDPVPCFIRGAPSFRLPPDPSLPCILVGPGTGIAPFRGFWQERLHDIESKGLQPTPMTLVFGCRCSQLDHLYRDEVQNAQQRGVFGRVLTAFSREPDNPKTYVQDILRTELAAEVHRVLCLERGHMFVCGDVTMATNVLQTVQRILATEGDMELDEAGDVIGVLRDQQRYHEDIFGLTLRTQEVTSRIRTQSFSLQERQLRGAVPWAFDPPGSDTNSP

[2] = molecular target: Nitric oxide synthase, inducible (Homo sapiens, UniProt P35228); experiment: Inhibitory concentration against Inducible nitric oxide synthase (iNOS)
Sequence of Nitric oxide synthase, inducible (P35228 whole entry): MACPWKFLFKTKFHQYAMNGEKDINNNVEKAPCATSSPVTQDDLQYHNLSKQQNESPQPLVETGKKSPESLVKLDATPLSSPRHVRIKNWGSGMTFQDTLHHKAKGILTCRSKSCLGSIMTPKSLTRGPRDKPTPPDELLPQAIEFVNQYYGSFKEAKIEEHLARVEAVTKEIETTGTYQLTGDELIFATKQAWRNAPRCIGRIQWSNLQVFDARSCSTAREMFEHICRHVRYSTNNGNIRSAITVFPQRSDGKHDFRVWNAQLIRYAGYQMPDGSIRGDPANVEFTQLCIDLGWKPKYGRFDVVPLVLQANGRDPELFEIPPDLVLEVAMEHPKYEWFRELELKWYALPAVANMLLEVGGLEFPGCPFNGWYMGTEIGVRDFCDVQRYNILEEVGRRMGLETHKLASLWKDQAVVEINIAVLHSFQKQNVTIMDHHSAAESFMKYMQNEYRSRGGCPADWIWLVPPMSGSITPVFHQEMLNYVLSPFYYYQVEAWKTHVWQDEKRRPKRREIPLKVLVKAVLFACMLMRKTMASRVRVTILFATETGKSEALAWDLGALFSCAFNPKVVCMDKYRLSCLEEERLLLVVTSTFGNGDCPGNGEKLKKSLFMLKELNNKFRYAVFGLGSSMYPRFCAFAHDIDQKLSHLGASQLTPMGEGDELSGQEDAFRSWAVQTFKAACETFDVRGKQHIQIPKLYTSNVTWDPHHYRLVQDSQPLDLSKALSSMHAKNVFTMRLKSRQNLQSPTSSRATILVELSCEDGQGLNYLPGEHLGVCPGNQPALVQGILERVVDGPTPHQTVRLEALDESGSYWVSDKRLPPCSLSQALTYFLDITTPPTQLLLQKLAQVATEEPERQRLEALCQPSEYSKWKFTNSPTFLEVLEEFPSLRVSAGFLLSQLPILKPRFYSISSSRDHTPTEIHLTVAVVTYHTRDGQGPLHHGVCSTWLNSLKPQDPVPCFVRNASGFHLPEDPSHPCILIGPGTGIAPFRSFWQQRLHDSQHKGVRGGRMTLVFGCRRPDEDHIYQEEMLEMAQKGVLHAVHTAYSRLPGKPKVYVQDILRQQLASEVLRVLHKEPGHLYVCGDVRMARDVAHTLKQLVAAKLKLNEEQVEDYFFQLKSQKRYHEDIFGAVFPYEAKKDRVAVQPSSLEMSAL

[3] = molecular target: Nitric oxide synthase 1 (Homo sapiens, UniProt P29475); experiment: Inhibitory concentration against Neuronal nitric oxide synthase
Sequence of Nitric oxide synthase 1 (P29475 whole entry): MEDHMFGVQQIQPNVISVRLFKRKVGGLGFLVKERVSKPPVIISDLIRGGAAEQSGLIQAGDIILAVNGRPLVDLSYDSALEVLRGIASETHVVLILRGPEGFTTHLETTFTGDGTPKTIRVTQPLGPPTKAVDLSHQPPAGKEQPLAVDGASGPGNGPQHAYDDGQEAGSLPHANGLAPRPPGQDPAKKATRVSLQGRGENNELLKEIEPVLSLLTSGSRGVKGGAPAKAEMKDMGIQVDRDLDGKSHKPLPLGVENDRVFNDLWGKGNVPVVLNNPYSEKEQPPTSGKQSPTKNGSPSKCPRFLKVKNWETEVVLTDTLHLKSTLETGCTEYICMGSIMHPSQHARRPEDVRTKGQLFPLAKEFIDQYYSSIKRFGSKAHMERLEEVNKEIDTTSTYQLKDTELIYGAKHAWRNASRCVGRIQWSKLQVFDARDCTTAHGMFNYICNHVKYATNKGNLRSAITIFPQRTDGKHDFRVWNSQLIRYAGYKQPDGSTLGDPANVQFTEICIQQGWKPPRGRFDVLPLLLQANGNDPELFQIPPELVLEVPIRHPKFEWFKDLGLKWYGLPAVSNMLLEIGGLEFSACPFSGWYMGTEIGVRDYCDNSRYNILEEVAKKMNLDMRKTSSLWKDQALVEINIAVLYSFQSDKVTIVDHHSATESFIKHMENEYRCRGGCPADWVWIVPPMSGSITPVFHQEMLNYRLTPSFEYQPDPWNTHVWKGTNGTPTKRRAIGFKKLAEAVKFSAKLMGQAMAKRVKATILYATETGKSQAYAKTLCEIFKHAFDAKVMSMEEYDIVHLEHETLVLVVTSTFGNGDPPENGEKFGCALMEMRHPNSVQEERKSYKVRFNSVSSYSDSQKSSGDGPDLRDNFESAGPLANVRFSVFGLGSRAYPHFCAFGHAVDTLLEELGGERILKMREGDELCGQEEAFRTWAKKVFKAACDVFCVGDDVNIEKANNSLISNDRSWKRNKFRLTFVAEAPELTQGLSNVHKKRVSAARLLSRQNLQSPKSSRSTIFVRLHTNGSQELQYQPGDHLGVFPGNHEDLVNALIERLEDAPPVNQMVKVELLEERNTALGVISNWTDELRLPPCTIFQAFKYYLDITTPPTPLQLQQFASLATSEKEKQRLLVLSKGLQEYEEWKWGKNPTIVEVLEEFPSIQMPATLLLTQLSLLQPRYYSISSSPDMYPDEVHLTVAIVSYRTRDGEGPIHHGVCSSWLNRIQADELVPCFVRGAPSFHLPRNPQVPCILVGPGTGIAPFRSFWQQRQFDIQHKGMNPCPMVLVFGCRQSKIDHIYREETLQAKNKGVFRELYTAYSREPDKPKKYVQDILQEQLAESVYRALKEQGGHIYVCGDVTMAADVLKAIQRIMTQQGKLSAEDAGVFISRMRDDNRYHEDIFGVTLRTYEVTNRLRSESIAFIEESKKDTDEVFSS

[4] = molecular target: T1, Nitric oxide synthase 3; experiment: Inhibitory concentration against Endothelial nitric oxide synthase

SMILES	IC50 [1]	IC50 [2]	IC50 [3]	IC50 [4]
CCCCC[C@H]1NC(=N)[C@@H](O)[C@H]1C	1980 µM	780 nM	27 µM	–
CCCCC[C@@H]1N=C(N)[C@H](O)[C@@H]1C	–	2800 nM	49 µM	2930 µM
CCCCC[C@H]1NC(=N)C[C@H]1C	226 µM	250 nM	3.2 µM	–
CCCCC[C@@H]1N=C(N)[C@@H](O)[C@@H]1C	–	1800 nM	20 µM	930 µM

The remaining compounds from weak to strong by IC50 [2], led by results:

IC50 [1]	IC50 [2]	IC50 [3]	IC50 [4]	SMILES
578 µM	4500 nM	21 µM	–	CCCCC[C@H]1NC(=N)C[C@H]1C (single isomer, unassigned)
–	1800 nM	8.9 µM	695 µM	CCCCC[C@H]1N=C(N)[C@H](O)[C@H]1C

From ChEMBL document CHEMBL1134975, “3-Hydroxy-4-methyl-5-pentyl-2-iminopyrrolidine: a potent and highly selective inducible nitric oxide synthase inhibitor” (Bioorg Med Chem Lett, 2002)
